Data: a compilation of properties of binary mixtures (doi:10.1016/j.jct.2008.09.001)

Assay: xn = mol fraction of the nth substance listed
Conditions: 101.3 kPa

## CCCCCCCC[n+]1ccccc1.F[B-](F)(F)F + O
283.15 K, x2 = 0
  viscosity: 640 mPa·s
283.15 K, x2 = 0.1
  viscosity: 404 mPa·s
283.15 K, x2 = 0.184
  viscosity: 261 mPa·s
283.15 K, x2 = 0.324
  viscosity: 161.4 mPa·s
283.15 K, x2 = 0.477
  viscosity: 116.4 mPa·s
283.15 K, x2 = 0.562
  viscosity: 63.8 mPa·s
283.15 K, x2 = 0.67
  viscosity: 65.55 mPa·s
283.15 K, x2 = 0.758
  viscosity: 51.8 mPa·s
283.15 K, x2 = 0.783
  viscosity: 54.27 mPa·s
288.15 K, x2 = 0.562
  viscosity: 49.84 mPa·s
288.15 K, x2 = 0.783
  viscosity: 38.63 mPa·s
293.15 K, x2 = 0
  viscosity: 320 mPa·s
293.15 K, x2 = 0.477
  viscosity: 69.9 mPa·s
293.15 K, x2 = 0.562
  viscosity: 39.6 mPa·s
293.15 K, x2 = 0.67
  viscosity: 40.42 mPa·s
293.15 K, x2 = 0.758
  viscosity: 28.74 mPa·s
293.15 K, x2 = 0.783
  viscosity: 29.21 mPa·s
298.15 K, x2 = 0
  viscosity: 234 mPa·s
298.15 K, x2 = 0.1
  viscosity: 159.1 mPa·s
298.15 K, x2 = 0.184
  viscosity: 112.3 mPa·s
298.15 K, x2 = 0.324
  viscosity: 72 mPa·s
298.15 K, x2 = 0.477
  viscosity: 55.07 mPa·s
298.15 K, x2 = 0.562
  viscosity: 31.77 mPa·s
298.15 K, x2 = 0.783
  viscosity: 22.73 mPa·s
303.15 K, x2 = 0
  viscosity: 171.9 mPa·s
303.15 K, x2 = 0.1
  viscosity: 122.5 mPa·s
303.15 K, x2 = 0.184
  viscosity: 86 mPa·s
303.15 K, x2 = 0.324
  viscosity: 57.88 mPa·s
303.15 K, x2 = 0.477
  viscosity: 44.37 mPa·s
303.15 K, x2 = 0.562
  viscosity: 26.47 mPa·s
303.15 K, x2 = 0.67
  viscosity: 26.82 mPa·s
303.15 K, x2 = 0.758
  viscosity: 19.17 mPa·s
303.15 K, x2 = 0.783
  viscosity: 18.09 mPa·s
308.15 K, x2 = 0.1
  viscosity: 96.2 mPa·s
308.15 K, x2 = 0.184
  viscosity: 68.3 mPa·s
308.15 K, x2 = 0.324
  viscosity: 47.09 mPa·s
308.15 K, x2 = 0.477
  viscosity: 36.11 mPa·s
308.15 K, x2 = 0.67
  viscosity: 22.27 mPa·s
308.15 K, x2 = 0.758
  viscosity: 15.97 mPa·s
313.15 K, x2 = 0
  viscosity: 105.7 mPa·s
313.15 K, x2 = 0.1
  viscosity: 71.5 mPa·s
313.15 K, x2 = 0.184
  viscosity: 54.93 mPa·s
313.15 K, x2 = 0.324
  viscosity: 38.75 mPa·s
313.15 K, x2 = 0.477
  viscosity: 30.19 mPa·s
313.15 K, x2 = 0.758
  viscosity: 13.56 mPa·s
313.15 K, x2 = 0.783
  viscosity: 12.78 mPa·s
318.15 K, x2 = 0.1
  viscosity: 57.41 mPa·s
318.15 K, x2 = 0.184
  viscosity: 44.98 mPa·s
318.15 K, x2 = 0.477
  viscosity: 25.23 mPa·s
318.15 K, x2 = 0.562
  viscosity: 16.88 mPa·s
318.15 K, x2 = 0.67
  viscosity: 15.98 mPa·s
318.15 K, x2 = 0.758
  viscosity: 11.52 mPa·s
318.15 K, x2 = 0.783
  viscosity: 11.08 mPa·s
323.15 K, x2 = 0
  viscosity: 64.89 mPa·s
323.15 K, x2 = 0.1
  viscosity: 46.73 mPa·s
323.15 K, x2 = 0.184
  viscosity: 37.06 mPa·s
323.15 K, x2 = 0.477
  viscosity: 21.39 mPa·s
323.15 K, x2 = 0.67
  viscosity: 13.65 mPa·s
323.15 K, x2 = 0.758
  viscosity: 9.95 mPa·s
323.15 K, x2 = 0.783
  viscosity: 9.39 mPa·s
328.15 K, x2 = 0
  viscosity: 53.52 mPa·s
328.15 K, x2 = 0.324
  viscosity: 23.23 mPa·s
328.15 K, x2 = 0.477
  viscosity: 18.15 mPa·s
328.15 K, x2 = 0.562
  viscosity: 12.05 mPa·s
328.15 K, x2 = 0.67
  viscosity: 11.88 mPa·s
328.15 K, x2 = 0.783
  viscosity: 8.2 mPa·s
333.15 K, x2 = 0.324
  viscosity: 19.92 mPa·s
333.15 K, x2 = 0.477
  viscosity: 15.84 mPa·s
333.15 K, x2 = 0.562
  viscosity: 10.61 mPa·s
333.15 K, x2 = 0.67
  viscosity: 10.38 mPa·s
333.15 K, x2 = 0.783
  viscosity: 7.17 mPa·s
338.15 K, x2 = 0
  viscosity: 38.1 mPa·s
338.15 K, x2 = 0.1
  viscosity: 27.06 mPa·s
338.15 K, x2 = 0.184
  viscosity: 22.38 mPa·s
338.15 K, x2 = 0.324
  viscosity: 17.32 mPa·s
338.15 K, x2 = 0.477
  viscosity: 13.44 mPa·s
338.15 K, x2 = 0.758
  viscosity: 6.75 mPa·s
338.15 K, x2 = 0.783
  viscosity: 6.31 mPa·s
343.15 K, x2 = 0
  viscosity: 32.38 mPa·s
343.15 K, x2 = 0.1
  viscosity: 23.06 mPa·s
343.15 K, x2 = 0.184
  viscosity: 19.25 mPa·s
343.15 K, x2 = 0.477
  viscosity: 11.58 mPa·s
343.15 K, x2 = 0.562
  viscosity: 8.15 mPa·s
343.15 K, x2 = 0.758
  viscosity: 5.99 mPa·s
343.15 K, x2 = 0.783
  viscosity: 5.58 mPa·s
348.15 K, x2 = 0.1
  viscosity: 19.83 mPa·s
348.15 K, x2 = 0.184
  viscosity: 16.71 mPa·s
348.15 K, x2 = 0.324
  viscosity: 13.13 mPa·s
348.15 K, x2 = 0.562
  viscosity: 7.17 mPa·s
348.15 K, x2 = 0.67
  viscosity: 7.19 mPa·s
348.15 K, x2 = 0.758
  viscosity: 5.29 mPa·s
348.15 K, x2 = 0.783
  viscosity: 4.97 mPa·s
353.15 K, x2 = 0
  viscosity: 24.05 mPa·s
